Test results: patent publication US10335409B2 (priority 2012, dated 2019)
pEC50, pKi: −log10 of the molar value.

How the values were obtained:
[1] = target: HCV NS3 protease domain genotype 1b (Hepatitis C virus genotype 1b (isolate Con1), UniProt Q9WMX2, E1202G); assay: Ki determination, NS3 protease genotype 1b (fluorogenic depsipeptide substrate); assay type: biochemical; details: 50 pM enzyme, NS4A peptide
[2] = target: HCV NS3 protease domain genotype 3a (Hepatitis C virus genotype 3a, UniProt Q81258); assay: Ki determination, NS3 protease genotype 3a (fluorogenic depsipeptide substrate); assay type: biochemical; details: 200 pM enzyme, NS4A peptide
In short: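 The NS3 protease domain (aa 1-181) with 20 μM NS4A peptide was used at 50 pM with 4 μM substrate (1b) or at 200 pM with 2 μM substrate (3a). Inhibitors (100 nM-5 pM) were pre-incubated 1 h at room temperature in HEPES/glycerol/DTT buffer with 10% DMSO. Steady-state rates (90-120 min) gave Ki via the Morrison equation, corrected for active enzyme and [S]/Km.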

[3] = test system: genotype 1a (H77) stable HCV replicon in Huh-7-derived cells; assay: Stable subgenomic HCV replicon EC50, genotype 1a (Renilla luciferase); assay type: cell-based, hepatitis C virus; details: Hepatitis C virus, stable replicon genotype 1a, 72 h, read-out: EC50 1A RLUC
In short: (§1)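 Compounds, three-fold diluted, were applied to Huh-7-derived cells harbouring luciferase replicons (genotype 1a H77, 1b Con1, 2a JFH-1, 4a ED43, with strain-specific adaptive mutations). Seventy-two hours later, intracellular replication was gauged by Renilla luciferase activity and EC50 derived by regression.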

[4] = test system: genotype 1b (Con1) stable HCV replicon in Huh-7-derived cells; assay: Stable subgenomic HCV replicon EC50, genotype 1b (Renilla luciferase); assay type: cell-based, hepatitis C virus; details: Hepatitis C virus, stable replicon genotype 1b, 72 h, read-out: EC50 1B RLUC
In short: as §1

[5] = test system: genotype 2a (JFH-1) stable HCV replicon in Huh-7-derived cells; assay: Stable subgenomic HCV replicon EC50, genotype 2a (Renilla luciferase); assay type: cell-based, hepatitis C virus; details: Hepatitis C virus, stable replicon genotype 2a, 72 h, read-out: EC50 2A RLUC
In short: as §1

[6] = test system: genotype 3a (S52) stable HCV replicon in Huh-7-derived cells; assay: Stable subgenomic HCV replicon EC50, genotype 3a (Renilla luciferase); assay type: cell-based, hepatitis C virus; details: Hepatitis C virus, 72 h, read-out: EC50 3A RLUC
[7] = test system: genotype 4a (ED43) stable HCV replicon in Huh-7-derived cells; assay: Stable subgenomic HCV replicon EC50, genotype 4a (Renilla luciferase); assay type: cell-based, hepatitis C virus; details: Hepatitis C virus, 72 h, read-out: EC50 4A RLUC
In short: as §1

[8] = test system: genotype 3a (S52) wild type transient HCV replicon in Huh-7-derived cells; assay: Transient-transfected HCV replicon EC50, genotype 3a wild type; assay type: cell-based, hepatitis C virus; details: Hepatitis C virus; transient-transfected replicon genotype 3a wild type, 72 h; read-out: EC50 3A WT
[9] = test system: genotype 1a (H77) wild type transient HCV replicon in Huh-7-derived cells; assay: Transient-transfected HCV replicon EC50, genotype 1a wild type; assay type: cell-based, hepatitis C virus; details: Hepatitis C virus, 72 h, transient-transfected replicon genotype 1a wild type, read-out: EC50 1A WT
[10] = test system: genotype 1a NS3/4a protease inhibitor resistant variant R155K transient HCV replicon in Huh-7-derived cells; assay: Transient-transfected HCV replicon EC50, genotype 1a R155K; assay type: cell-based, hepatitis C virus; details: Hepatitis C virus, 72 h, read-out: EC50 1A R155K, transient-transfected replicon genotype 1a R155K resistant variant, 72 h
[11] = test system: genotype 1b (Con1) wild type transient HCV replicon in Huh-7-derived cells; assay: Transient-transfected HCV replicon EC50, genotype 1b wild type; assay type: cell-based, hepatitis C virus; details: Hepatitis C virus, 72 h, transient-transfected replicon genotype 1b wild type, read-out: EC50 1B WT
[12] = test system: genotype 1b NS3/4a protease inhibitor resistant variant D168A transient HCV replicon in Huh-7-derived cells; assay: Transient-transfected HCV replicon EC50, genotype 1b D168A; assay type: cell-based, hepatitis C virus; details: Hepatitis C virus, 72 h, read-out: EC50 1B D168A, transient-transfected replicon genotype 1b D168A resistant variant, 72 h

HCV NS3 protease domain genotype 3a, sequence (Q81258 whole entry, looked up, the tested form may be a part): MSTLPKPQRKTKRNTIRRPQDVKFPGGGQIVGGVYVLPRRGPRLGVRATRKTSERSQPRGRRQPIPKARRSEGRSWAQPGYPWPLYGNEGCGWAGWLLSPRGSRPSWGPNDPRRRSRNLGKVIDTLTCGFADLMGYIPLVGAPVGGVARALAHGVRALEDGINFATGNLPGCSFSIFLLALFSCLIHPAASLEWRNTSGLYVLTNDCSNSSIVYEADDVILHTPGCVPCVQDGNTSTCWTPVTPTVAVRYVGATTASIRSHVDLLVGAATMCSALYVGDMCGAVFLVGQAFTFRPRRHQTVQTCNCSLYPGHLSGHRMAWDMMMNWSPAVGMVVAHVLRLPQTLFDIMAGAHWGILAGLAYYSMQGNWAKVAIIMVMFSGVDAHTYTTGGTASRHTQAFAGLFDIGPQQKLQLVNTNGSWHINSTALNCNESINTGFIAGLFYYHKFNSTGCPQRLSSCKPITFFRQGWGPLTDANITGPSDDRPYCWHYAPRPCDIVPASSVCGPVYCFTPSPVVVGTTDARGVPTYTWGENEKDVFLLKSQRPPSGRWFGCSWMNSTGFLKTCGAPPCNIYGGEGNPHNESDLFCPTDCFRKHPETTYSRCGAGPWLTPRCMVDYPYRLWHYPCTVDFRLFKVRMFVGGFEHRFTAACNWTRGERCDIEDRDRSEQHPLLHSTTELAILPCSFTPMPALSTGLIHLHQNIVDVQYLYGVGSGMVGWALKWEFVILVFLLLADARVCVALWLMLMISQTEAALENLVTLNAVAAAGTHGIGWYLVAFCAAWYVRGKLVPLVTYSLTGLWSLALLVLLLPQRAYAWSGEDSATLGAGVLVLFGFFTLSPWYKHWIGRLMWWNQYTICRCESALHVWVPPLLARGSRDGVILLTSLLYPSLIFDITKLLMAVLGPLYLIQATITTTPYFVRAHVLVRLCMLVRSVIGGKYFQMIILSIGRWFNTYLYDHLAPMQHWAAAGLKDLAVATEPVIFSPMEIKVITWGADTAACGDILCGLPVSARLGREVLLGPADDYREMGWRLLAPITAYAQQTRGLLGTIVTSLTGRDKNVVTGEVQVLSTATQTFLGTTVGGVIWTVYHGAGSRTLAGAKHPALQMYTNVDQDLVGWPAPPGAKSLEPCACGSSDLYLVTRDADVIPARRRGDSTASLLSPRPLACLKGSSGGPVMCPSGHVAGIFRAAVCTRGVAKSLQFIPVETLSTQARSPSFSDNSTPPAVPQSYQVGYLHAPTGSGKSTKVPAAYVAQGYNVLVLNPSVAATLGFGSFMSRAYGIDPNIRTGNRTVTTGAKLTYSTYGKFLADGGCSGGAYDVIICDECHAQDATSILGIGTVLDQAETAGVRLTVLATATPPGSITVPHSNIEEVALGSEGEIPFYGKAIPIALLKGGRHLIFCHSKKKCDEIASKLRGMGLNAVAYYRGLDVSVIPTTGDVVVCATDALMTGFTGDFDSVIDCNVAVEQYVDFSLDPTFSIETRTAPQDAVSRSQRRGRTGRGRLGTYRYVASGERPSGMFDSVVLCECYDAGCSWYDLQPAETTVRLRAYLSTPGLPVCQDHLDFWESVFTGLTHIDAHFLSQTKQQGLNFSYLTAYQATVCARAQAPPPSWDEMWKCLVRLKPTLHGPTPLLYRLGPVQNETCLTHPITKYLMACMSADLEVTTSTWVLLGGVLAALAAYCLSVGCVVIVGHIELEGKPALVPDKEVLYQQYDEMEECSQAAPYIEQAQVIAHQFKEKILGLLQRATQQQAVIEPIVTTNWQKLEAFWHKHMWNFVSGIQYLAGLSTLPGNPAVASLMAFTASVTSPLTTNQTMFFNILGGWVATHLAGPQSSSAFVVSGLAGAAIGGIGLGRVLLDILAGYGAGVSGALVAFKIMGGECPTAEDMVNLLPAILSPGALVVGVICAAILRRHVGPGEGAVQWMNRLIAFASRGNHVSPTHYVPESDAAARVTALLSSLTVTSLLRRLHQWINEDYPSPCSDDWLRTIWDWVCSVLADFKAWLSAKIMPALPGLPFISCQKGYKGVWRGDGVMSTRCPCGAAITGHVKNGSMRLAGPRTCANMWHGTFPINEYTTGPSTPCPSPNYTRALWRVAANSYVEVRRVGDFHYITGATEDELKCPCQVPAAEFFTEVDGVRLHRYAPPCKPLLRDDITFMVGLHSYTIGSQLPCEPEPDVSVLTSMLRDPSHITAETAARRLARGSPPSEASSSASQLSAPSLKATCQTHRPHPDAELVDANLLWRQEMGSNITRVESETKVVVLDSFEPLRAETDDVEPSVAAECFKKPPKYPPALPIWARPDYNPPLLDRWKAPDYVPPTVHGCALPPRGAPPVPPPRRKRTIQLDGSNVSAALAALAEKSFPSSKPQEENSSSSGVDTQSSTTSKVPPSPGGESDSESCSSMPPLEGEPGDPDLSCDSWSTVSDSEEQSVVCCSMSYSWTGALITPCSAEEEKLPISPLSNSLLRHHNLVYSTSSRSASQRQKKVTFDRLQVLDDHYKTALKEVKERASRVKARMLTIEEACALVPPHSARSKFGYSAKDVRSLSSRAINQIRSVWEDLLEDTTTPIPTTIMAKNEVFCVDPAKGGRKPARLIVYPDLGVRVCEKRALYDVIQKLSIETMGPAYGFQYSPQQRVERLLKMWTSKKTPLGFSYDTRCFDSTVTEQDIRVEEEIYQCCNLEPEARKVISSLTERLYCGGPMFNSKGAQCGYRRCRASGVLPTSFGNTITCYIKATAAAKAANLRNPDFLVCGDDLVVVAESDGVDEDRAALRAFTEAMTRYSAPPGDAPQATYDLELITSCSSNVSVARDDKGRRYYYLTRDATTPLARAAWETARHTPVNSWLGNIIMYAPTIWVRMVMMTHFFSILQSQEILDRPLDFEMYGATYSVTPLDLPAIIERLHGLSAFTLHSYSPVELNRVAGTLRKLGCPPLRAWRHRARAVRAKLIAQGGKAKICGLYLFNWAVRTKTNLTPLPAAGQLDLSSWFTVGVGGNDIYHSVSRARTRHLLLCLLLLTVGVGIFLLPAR
HCV NS3 protease domain genotype 1b, sequence (Q9WMX2 1027-1208 E1202G): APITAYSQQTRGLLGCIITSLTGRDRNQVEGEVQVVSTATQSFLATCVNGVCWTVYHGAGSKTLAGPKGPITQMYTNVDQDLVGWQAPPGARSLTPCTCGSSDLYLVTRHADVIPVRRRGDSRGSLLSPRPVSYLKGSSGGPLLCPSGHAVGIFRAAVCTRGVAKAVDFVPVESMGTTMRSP

Compound CC[C@@H]1[C@@H]2CN(C(=O)[C@H](C(C)(C)C)NC(=O)O[C@@H]3C[C@H]3CCCCC(F)(F)c3nc4ccc(OC(F)(F)F)cc4nc3O2)[C@@H]1C(=O)N[C@]1(C(=O)NS(=O)(=O)C2(C)CC2)C[C@H]1C(F)F [Example 83, (1aR,5S,8S,9S,10R,22aR)-5-tert-butyl-N-[(1R,2R)-2-(difluoromethyl)-1-{[(1-methylcyclopropyl)sulfonyl]carbamoyl}cyclopropyl]-9-ethyl-18,18-difluoro-3,6-dioxo-14-(trifluoromethoxy)-1,1a,3,4,5,6,9,10,18,19,20,21,22,22a-tetradecahydro-8H-7,10-methanocyclopropa[18,19][1,10,3,6]dioxadiazacyclononadecino[11,12-b]quinoxaline-8-carboxamide] has a pKi [1] of 10.05, a pKi [2] of 9.32 and a pEC50 [3] of 7.21. The pEC50 [4] was 7.24, the pEC50 [5] was 7.72 and the pEC50 [6] was 5.91. The pEC50 [7] was 7.38, the pEC50 [8] was 6.52 and the pEC50 [9] was 7.21. It also gave a pEC50 [10] of 6.88, a pEC50 [11] of 7.57 and a pEC50 [12] of 6.69.
In the case of C[C@@H]1[C@@H]2CN(C(=O)[C@H](C(C)(C)C)NC(=O)O[C@@H]3C[C@@H]4C[C@@H]4[C@H]3CCCCCc3nc4ccc(F)cc4nc3O2)[C@@H]1C(=O)N[C@]1(C(=O)NS(=O)(=O)C2(C)CC2)C[C@H]1C(F)F [Example 86, (1aS,2aR,6S,9S,10S,11R,23aR,23bS)-6-tert-butyl-N-[(1R,2R)-2-(difluoromethyl)-1-{[(1-methylcyclopropyl)sulfonyl]carbamoyl}cyclopropyl]-15-fluoro-10-methyl-4,7-dioxo-1a,2,2a,4,5,6,7,10,11,19,20,21,22,23,23a,23b-hexadecahydro-1H,9H-8,11-methanocyclopropa[4′,5′]cyclopenta[1′,2′:18,19][1,10,3,6]dioxadiazacyclononadecino[11,12-b]quinoxaline-9-carboxamide], the pKi [1] was 10.40, the pKi [2] was 10.15 and the pEC50 [3] was 8.25. The pEC50 [4] was 8.26, the pEC50 [5] was 8.23 and the pEC50 [6] was 7.38. For the same compound, the pEC50 [7] was 8.24, the pEC50 [8] was 7.80 and the pEC50 [9] was 8.40. For the same compound, the pEC50 [10] was 8.43, the pEC50 [11] was 8.47 and the pEC50 [12] was 8.00.
